Legend:
[1] = test system: differentiated HBE cultures; assay: ASL volume by refracted light microscopy of the meniscus, bumetanide treatment; assay type: cell-based, human; conditions: 100 μM bumetanide for three days prior to measurement; mean ±SEM; control filters 10.6±1.0 μL; p<0.001
Description: (§1) HBE cells were cultured from excess pathological tissue following lung transplantation and organ donation under protocols approved by the Universities of Pittsburgh and North Carolina Investigational Review Boards. Cells were studied following 3-6 weeks of culture and considered differentiated when a mucociliary phenotype was apparent on phase contrast microscopy. HBE cultures grown in a twenty four well plate on 0.33 cm^2 filter inserts (See, e.g., FIG. 1B) were visualized with a standard cell culture microscope (Olympus CK40) with a 5× plain light objective (Zeiss) and imaged using a Scion CFW 1610M camera with μManager (30). […] In order to standardize the quantification of the meniscus image, a custom script using the open-source ImageJ software was developed. […] The length of the meniscus can be determined as the length from where the grey value is greater than min to the end of the array and the area under the curve (AUC) is measured using the numerically integrated rectangular rule. […] Therefore, the correlation between the derived parameters of the intensity profile and the ASL volume were determined, rather than mathematically calculating the volume based on the AUC of the intensity profile. […] Thus, the ASL volume can be measured from the image of the meniscus by integrating the […] value with the experimentally derived calibration curve shown in FIG. 4B. […]

[2] = test system: differentiated CF HBE cells; assay: ASL volume by refracted light microscopy after apical fluid bolus, isotonic versus hypertonic; assay type: cell-based, human; conditions: 5 μL PBS with 300 mM mannitol applied apically; ASL volume measured at 0, 4, 8, 24, 48 and 72 hours; FIG. 7
Description: as §1

| Compound | ASL volume [1] [µL] | ASL volume expansion compared to isotonic fluid [2] |
| --- | --- | --- |
| CCCCNc1cc(C(=O)O)cc(S(N)(=O)=O)c1Oc1ccccc1 [bumetanide] | 1.1 ± 0.1 | – |
| OC[C@@H](O)[C@@H](O)[C@H](O)[C@H](O)CO [mannitol] | – | more pronounced and prolonged ASL volume expansion |
